Values joined by “and” are separate entries in the source; they are usually repeats but may differ in a detail not shown here. Identical values can stand only once. Numbers after ± are expanded uncertainties.
Experiments:
[1] = for Triple point temperature: DSC
[2] = Molar enthalpy of transition or fusion; settings: Crystal; DSC

c1ccc2nc3ccccc3cc2c1 [acridine]
[1]
Settings	vapor or sublimation pressure
292.1 K, Crystal, Calculated from knudsen effusion weight loss	4e-06 ± 9e-07 kPa
293 K, Crystal, Calculated from knudsen effusion weight loss	4.7e-06 ± 1e-06 kPa
295.2 K, Crystal, Calculated from knudsen effusion weight loss	6.3e-06 ± 1.3e-06 kPa
296.1 K, Crystal, Calculated from knudsen effusion weight loss	6.7e-06 ± 1.4e-06 kPa
298.4 K, Crystal, Calculated from knudsen effusion weight loss	9.6e-06 ± 2e-06 kPa
300 K, Crystal, Calculated from knudsen effusion weight loss	1.2e-05 ± 3e-06 kPa
301.3 K, Crystal, Calculated from knudsen effusion weight loss	1.4e-05 ± 3e-06 kPa
303 K, Crystal, Calculated from knudsen effusion weight loss	1.8e-05 ± 4e-06 kPa
304.2 K, Crystal, Calculated from knudsen effusion weight loss	2e-05 ± 4e-06 kPa
305.9 K, Crystal, Calculated from knudsen effusion weight loss	2.6e-05 ± 5e-06 kPa
306.2 K, Crystal, Calculated from knudsen effusion weight loss	2.6e-05 ± 5e-06 kPa
308.1 K, Crystal, Calculated from knudsen effusion weight loss	3.3e-05 ± 7e-06 kPa
308.9 K, Crystal, Calculated from knudsen effusion weight loss	3.7e-05 ± 8e-06 kPa
311.1 K, Crystal, Calculated from knudsen effusion weight loss	4.7e-05 ± 1e-05 kPa
311.9 K, Crystal, Calculated from knudsen effusion weight loss	5.3e-05 ± 1.1e-05 kPa
314.1 K, Crystal, Calculated from knudsen effusion weight loss	6.8e-05 ± 1.4e-05 kPa
314.8 K, Crystal, Calculated from knudsen effusion weight loss	7.1e-05 ± 1.5e-05 kPa
315.8 K, Crystal, Calculated from knudsen effusion weight loss	8.4e-05 ± 1.8e-05 kPa
317 K, Crystal, Calculated from knudsen effusion weight loss	9.3e-05 ± 1.9e-05 kPa
317.8 K, Crystal, Calculated from knudsen effusion weight loss	9.8e-05 ± 2.1e-05 kPa
318.1 K, Crystal, Calculated from knudsen effusion weight loss	9.7e-05 ± 2e-05 kPa
318.8 K, Crystal, Calculated from knudsen effusion weight loss	0.000119 ± 2.5e-05 kPa
319.4 K, Crystal, Calculated from knudsen effusion weight loss	0.00011 ± 2e-05 kPa
320 K, Crystal, Calculated from knudsen effusion weight loss	0.000134 ± 2.8e-05 kPa
320.8 K, Crystal, Calculated from knudsen effusion weight loss	0.000138 ± 2.8e-05 kPa and 0.000148 ± 3e-05 kPa
321.1 K, Crystal, Calculated from knudsen effusion weight loss	0.00014 ± 3e-05 kPa
322.3 K, Crystal, Calculated from knudsen effusion weight loss	0.00015 ± 3e-05 kPa
322.9 K, Crystal, Calculated from knudsen effusion weight loss	0.000179 ± 3.7e-05 kPa
324 K, Crystal, Calculated from knudsen effusion weight loss	0.00019 ± 4e-05 kPa
325.1 K, Crystal, Calculated from knudsen effusion weight loss	0.00021 ± 4e-05 kPa
327 K, Crystal, Calculated from knudsen effusion weight loss	0.00027 ± 6e-05 kPa
328.1 K, Crystal, Calculated from knudsen effusion weight loss	0.0003 ± 6e-05 kPa
329.9 K, Crystal, Calculated from knudsen effusion weight loss	0.00036 ± 7e-05 kPa
331.1 K, Crystal, Calculated from knudsen effusion weight loss	0.0004 ± 8e-05 kPa
332.9 K, Crystal, Calculated from knudsen effusion weight loss	0.00048 ± 0.0001 kPa
334 K, Crystal, Calculated from knudsen effusion weight loss	0.00057 ± 0.00012 kPa
335.9 K, Crystal, Calculated from knudsen effusion weight loss	0.0007 ± 0.00014 kPa
337.1 K, Crystal, Calculated from knudsen effusion weight loss	0.00075 ± 0.00016 kPa
338.9 K, Crystal, Calculated from knudsen effusion weight loss	0.00091 ± 0.00019 kPa
340.2 K, Crystal, Calculated from knudsen effusion weight loss	0.00106 ± 0.00023 kPa
341.7 K, Crystal, Calculated from knudsen effusion weight loss	0.00122 ± 0.00027 kPa
343 K, Crystal, Calculated from knudsen effusion weight loss	0.00145 ± 0.00032 kPa
344.6 K, Crystal, Calculated from knudsen effusion weight loss	0.00162 ± 0.00035 kPa
346.1 K, Crystal, Calculated from knudsen effusion weight loss	0.0019 ± 0.00042 kPa
347.6 K, Crystal, Calculated from knudsen effusion weight loss	0.0022 ± 0.0005 kPa
348.8 K, Crystal, Calculated from knudsen effusion weight loss	0.0025 ± 0.0006 kPa
388.2 K, Liquid, Rate of evaporation	0.067 ± 0.027 kPa
391.2 K, Liquid, Rate of evaporation	0.08 ± 0.033 kPa
395.2 K, Liquid, Rate of evaporation	0.099 ± 0.04 kPa
399.1 K, Liquid, Rate of evaporation	0.119 ± 0.048 kPa
402.1 K, Liquid, Rate of evaporation	0.147 ± 0.06 kPa
405 K, Liquid, Rate of evaporation	0.17 ± 0.069 kPa
408 K, Liquid, Rate of evaporation	0.197 ± 0.08 kPa
412 K, Liquid, Rate of evaporation	0.241 ± 0.098 kPa
416 K, Liquid, Rate of evaporation	0.292 ± 0.12 kPa
419.9 K, Liquid, Rate of evaporation	0.338 ± 0.14 kPa
422.9 K, Liquid, Rate of evaporation	0.396 ± 0.16 kPa
425.9 K, Liquid, Rate of evaporation	0.443 ± 0.18 kPa
428.9 K, Liquid, Rate of evaporation	0.51 ± 0.21 kPa
431.8 K, Liquid, Rate of evaporation	0.601 ± 0.24 kPa

Settings	Triple point temperature [K]
[1], Crystal	382 ± 2.1

Settings	Molar enthalpy of transition or fusion [kcal/mol]
[2]	4.9 ± 0.359

c1ccc2c(c1)cnc1ccccc12 [phenanthridine]
[1]
Settings	vapor or sublimation pressure
318.6 K, Crystal, Torsion effusion method	3.8e-05 ± 1.3e-05 kPa
322.1 K, Crystal, Torsion effusion method	5.7e-05 ± 1.9e-05 kPa
323.2 K, Crystal, Torsion effusion method	7.6e-05 ± 2.4e-05 kPa
324 K, Crystal, Torsion effusion method	7.6e-05 ± 2.2e-05 kPa
325 K, Crystal, Torsion effusion method	8.5e-05 ± 3e-05 kPa
325.2 K, Crystal, Torsion effusion method	9.4e-05 ± 3.1e-05 kPa
325.9 K, Crystal, Torsion effusion method	0.000104 ± 2.9e-05 kPa
327 K, Crystal, Torsion effusion method	0.000104 ± 3.1e-05 kPa
327.6 K, Crystal, Torsion effusion method	0.000124 ± 3.2e-05 kPa
329.1 K, Crystal, Torsion effusion method	0.000133 ± 4.5e-05 kPa
329.3 K, Crystal, Torsion effusion method	0.000151 ± 4.7e-05 kPa
330 K, Crystal, Torsion effusion method	0.000142 ± 4.4e-05 kPa
330.9 K, Crystal, Torsion effusion method	0.000181 ± 5.4e-05 kPa
331.9 K, Crystal, Torsion effusion method	0.00019 ± 5.1e-05 kPa
332.6 K, Crystal, Torsion effusion method	0.000208 ± 6.3e-05 kPa
332.9 K, Crystal, Torsion effusion method	0.000228 ± 6.7e-05 kPa
333.9 K, Crystal, Torsion effusion method	0.00025 ± 7e-05 kPa
334.1 K, Crystal, Torsion effusion method	0.00023 ± 8e-05 kPa
334.7 K, Crystal, Torsion effusion method	0.00025 ± 8e-05 kPa
335 K, Crystal, Torsion effusion method	0.00026 ± 8e-05 kPa
335.7 K, Crystal, Torsion effusion method	0.0003 ± 9e-05 kPa
335.9 K, Crystal, Torsion effusion method	0.00028 ± 7e-05 kPa
337 K, Crystal, Torsion effusion method	0.00034 ± 0.0001 kPa
337.9 K, Crystal, Torsion effusion method	0.00038 ± 0.0001 kPa
338.4 K, Crystal, Torsion effusion method	0.00036 ± 0.00012 kPa
339.8 K, Crystal, Torsion effusion method	0.00045 ± 0.00014 kPa
340 K, Crystal, Torsion effusion method	0.00044 ± 0.00014 kPa and 0.00047 ± 0.00014 kPa
341.4 K, Crystal, Torsion effusion method	0.00053 ± 0.00018 kPa
341.5 K, Crystal, Torsion effusion method	0.00055 ± 0.00018 kPa
342.2 K, Crystal, Torsion effusion method	0.00061 ± 0.0002 kPa
342.9 K, Crystal, Torsion effusion method	0.00061 ± 0.0002 kPa
343.2 K, Crystal, Torsion effusion method	0.00072 ± 0.00021 kPa
345.3 K, Crystal, Torsion effusion method	0.00085 ± 0.00025 kPa
345.5 K, Crystal, Torsion effusion method	0.00079 ± 0.00024 kPa
347.1 K, Crystal, Torsion effusion method	0.001 ± 0.00027 kPa
347.3 K, Crystal, Torsion effusion method	0.00093 ± 0.00025 kPa
348.2 K, Crystal, Torsion effusion method	0.00115 ± 0.00035 kPa
349.4 K, Crystal, Torsion effusion method	0.00128 ± 0.00042 kPa
388.1 K, Liquid, Rate of evaporation	0.038 ± 0.015 kPa
393.1 K, Liquid, Rate of evaporation	0.05 ± 0.02 kPa
398.1 K, Liquid, Rate of evaporation	0.065 ± 0.026 kPa
403.1 K, Liquid, Rate of evaporation	0.086 ± 0.035 kPa
408.1 K, Liquid, Rate of evaporation	0.113 ± 0.046 kPa
413.1 K, Liquid, Rate of evaporation	0.145 ± 0.059 kPa
418.1 K, Liquid, Rate of evaporation	0.187 ± 0.076 kPa
423.1 K, Liquid, Rate of evaporation	0.24 ± 0.098 kPa
428.1 K, Liquid, Rate of evaporation	0.302 ± 0.12 kPa
433.1 K, Liquid, Rate of evaporation	0.369 ± 0.15 kPa
438.1 K, Liquid, Rate of evaporation	0.469 ± 0.19 kPa
443.1 K, Liquid, Rate of evaporation	0.567 ± 0.23 kPa
448.1 K, Liquid, Rate of evaporation	0.728 ± 0.3 kPa
453.1 K, Liquid, Rate of evaporation	0.854 ± 0.35 kPa

Settings	Triple point temperature [K]
[1], Crystal	379.1 ± 2.1

Settings	Molar enthalpy of transition or fusion [kcal/mol]
[2]	5.93 ± 0.502
